In US20260234115A1, “LIPID COMPOUNDS, COMPOSITIONS, AND USES THEREOF” (Liberate Bio, Inc., priority 2023, published 2026):
Marks after values point to notes of the source that are not given here.

tested on: mouse organs; assay: In vivo activity screening in mice: organ mean total flux (p/s) of luciferase activity after injection of F2 LNP pools (Table 6, FIG. 7A-7C); conditions: Mouse 5, dose 0.5 mg/kg, luciferase mRNA
Method: Small rodent biodistribution studies were performed in mice (e.g., C57BL/6J, Balb-c, CD-1, etc.). For evaluating LNP biodistribution and tissue activity upon systemic administration, C57BL/6J mice received dose administration by single intravenous injection via tail vein with LNP formulations (individual or pooled) in PBS, at different dose (0.25-3 mg/kg) levels of firefly luciferase mRNA. At predetermined time points (4-6 hours post-injection), the animals were anesthetized via isoflurane and subjected to in-life imaging sessions for bioluminescence using an In Vivo Imaging System (IVIS). All animals were dosed with D-Luciferin at 15 mg/mL via subcutaneous (SC) injection at 0.2 mL/animal. Animals had their abdomen hair shaved using an animal trimmer. They were then placed so their shaved belly faced up toward the IVIS camera. Whole body imaging sessions were performed 10-15 minutes following D-Luciferin administration.
For in detail organ distribution and activity of LNP formulations, ex vivo imaging sessions were also performed. All animals received SC D-Luciferin and were then euthanized by isoflurane overdose, followed by cardiac perfusion with saline. Following perfusion, the organs were collected and subjected to IVIS imaging for luminescence within 10-15 minutes of D-Luciferin injection.
All IVIS images were processed with a computer software to identify the regions of interests for individual organs to detect the total flux (p/s) values as luminescence quantification. Then the total flux values were graphed to evaluate the in vivo activity in each collected organ.
Small rodent biodistribution studies were performed in mice according to the General Study Protocols in Example 3(a). LNPs incorporating lipid compounds were prepared in Formulation F2, with MC3 as lipid compound (Cayman Chemical) prepared using Formulation F2 for comparison. LNP pools (with firefly luciferase mRNA encapsulated) were injected into mice at varying doses, and organ mean total flux (p/s) results (measuring luciferase activity) were then collected according to Example 3(a).
LNPs comprising MC3 used as a control and for cross-mouse comparison. Dose is in mg/kg; LC is Lipid Compound according to Table 1.
Additional screening results for Compounds 7, 13, 14, 26, 33, 38, 39, 40, 48, 60, 61, 89, 103, and 109 in spleen, femur, and muscle are shown in FIG. 7A, FIG. 7B, and FIG. 7C, with MC3 as a used as a control for comparison.

| SMILES | Organ Mean Total Flux Femur | Organ Mean Total Flux Heart | Organ Mean Total Flux Kidney | Organ Mean Total Flux Liver | Organ Mean Total Flux Lung | Organ Mean Total Flux Muscle | Organ Mean Total Flux Pancreas | Organ Mean Total Flux Spleen |
| --- | --- | --- | --- | --- | --- | --- | --- | --- |
| CCCCCCCCCC(C)OC(=O)CCCCCCC(=O)OCC(COC(=O)CCCCCCC(=O)OC(C)CCCCCCCCC)(COC(=O)CCCCCCC(=O)OC(C)CCCCCCCCC)COC(=O)CCC(CCCCCC)OC(=O)NCCN1CCCC1 (stereo not drawn) [Compound 41, O1-[2,2-bis[[8-(1-methyldecoxy)-8-oxo-octanoyl]oxymethyl]-3-[4-(2-pyrrolidin-1-ylethylcarbamoyloxy)decanoyloxy]propyl]O8-(1-methyldecyl) octanedioate] | 3.8 p/s (×10^6) | 2.2 p/s (×10^6) | 2.8 p/s (×10^6) | 3493 p/s (×10^6) | 18.0 p/s (×10^6) | 10.0 p/s (×10^6) | 0.8 p/s (×10^6) | 2.5 p/s (×10^6) |
| CCCCCCCCCC(C)OC(=O)CCCCCC(=O)OCC(COC(=O)CCCCCC(=O)OC(C)CCCCCCCCC)(COC(=O)CCCCCC(=O)OC(C)CCCCCCCCC)COC(=O)CCC(CCCCCC)OC(=O)NCCN1CCCC1 (stereo not drawn) [Compound 42, O1-[2,2-bis[[7-(1-methyldecoxy)-7-oxo-heptanoyl]oxymethyl]-3-[4-(2-pyrrolidin-1-ylethylcarbamoyloxy)decanoyloxy]propyl]O7-(1-methyldecyl) heptanedioate] | 6.2 p/s (×10^6) | 1.7 p/s (×10^6) | 1.9 p/s (×10^6) | 1778 p/s (×10^6) | 13.4 p/s (×10^6) | 25.8 p/s (×10^6) | 1.8 p/s (×10^6) | 4.5 p/s (×10^6) |
| CCCC/C=C\CCOC(=O)CCCCCCC(=O)OCC(COC(=O)CCCCCCC(=O)OCC/C=C\CCCC)(COC(=O)CCCCCCC(=O)OCC/C=C\CCCC)COC(=O)CCC(CCCCCC)OC(=O)NCCN1CCCC1 (stereo not drawn) [Compound 43, O8-[2,2-bis[[8-[(Z)-oct-3-enoxy]-8-oxo-octanoyl]oxymethyl]-3-[4-(2-pyrrolidin-1-ylethylcarbamoyloxy)decanoyloxy]propyl]O1-[(Z)-oct-3-enyl]octanedioate] | 3.1 p/s (×10^6) | 0.7 p/s (×10^6) | 1.6 p/s (×10^6) | 669.3 p/s (×10^6) | 12.8 p/s (×10^6) | 8.0 p/s (×10^6) | 2.0 p/s (×10^6) | 9.5 p/s (×10^6) |

same assay, conditions: Mouse 6, dose 0.5 mg/kg, luciferase mRNA

| SMILES | Organ Mean Total Flux Femur | Organ Mean Total Flux Heart | Organ Mean Total Flux Kidney | Organ Mean Total Flux Liver | Organ Mean Total Flux Lung | Organ Mean Total Flux Muscle | Organ Mean Total Flux Pancreas | Organ Mean Total Flux Spleen |
| --- | --- | --- | --- | --- | --- | --- | --- | --- |
| CCCCCCCCCCOC(=O)CCCCCCC(=O)OCC(COC(=O)CCCCCCC(=O)OCCCCCCCCCC)(COC(=O)CCCCCCC(=O)OCCCCCCCCCC)COC(=O)CCC(CCCCCC)OC(=O)NCCN1CCCC1 (stereo not drawn) [Compound 35, O8-[2,2-bis[(8-decoxy-8-oxo-octanoyl)oxymethyl]-3-[4-(2-pyrrolidin-1ylethylcarbamoyloxy)decanoyloxy]propyl]O1-decyloctanedioate] | 4.2 p/s (×10^6) | 1.3 p/s (×10^6) | 1.3 p/s (×10^6) | 850.3 p/s (×10^6) | 11.0 p/s (×10^6) | 15.5 p/s (×10^6) | 2.5 p/s (×10^6) | 5.4 p/s (×10^6) |
| CCCCCCCCCCOC(=O)CCCCCC(=O)OCC(COC(=O)CCCCCC(=O)OCCCCCCCCCC)(COC(=O)CCCCCC(=O)OCCCCCCCCCC)COC(=O)CCC(CCCCCC)OC(=O)NCCN1CCCC1 (stereo not drawn) [Compound 36, O7-[2,2-bis[(7-decoxy-7-oxo-heptanoyl)oxymethyl]-3-[4-(2-pyrrolidin-1-ylethylcarbamoyloxy)decanoyloxy]propyl]O1-decyl heptanedioate] | 3.6 p/s (×10^6) | 3.7 p/s (×10^6) | 2.7 p/s (×10^6) | 2330 p/s (×10^6) | 16.5 p/s (×10^6) | 6.0 p/s (×10^6) | 1.2 p/s (×10^6) | 6.1 p/s (×10^6) |
| CCCCCCCC(C)OC(=O)CCCCCC(=O)OCC(COC(=O)CCCCCC(=O)OC(C)CCCCCCC)(COC(=O)CCCCCC(=O)OC(C)CCCCCCC)COC(=O)CCC(CCCCCC)OC(=O)NCCN1CCCC1 (stereo not drawn) [Compound 38, O1-[2,2-bis[[7-(1-methyloctoxy)-7-oxo-heptanoyl]oxymethyl]-3-[4-(2-pyrrolidin-1-ylethylcarbamoyloxy)decanoyloxy]propyl]O7-(1-methyloctyl) heptanedioate] | 9.8 p/s (×10^6) | 11.0 p/s (×10^6) | 8.1 p/s (×10^6) | 6770 p/s (×10^6) | 33.3 p/s (×10^6) | 23.5 p/s (×10^6) | 2.6 p/s (×10^6) | 27.2 p/s (×10^6) |
| CCCCCCCCC(C)OC(=O)CCCCCC(=O)OCC(COC(=O)CCCCCC(=O)OC(C)CCCCCCCC)(COC(=O)CCCCCC(=O)OC(C)CCCCCCCC)COC(=O)CCC(CCCCCC)OC(=O)NCCN1CCCC1 (stereo not drawn) [Compound 40, O1-[2,2-bis[[7-(1-methylnonoxy)-7-oxo-heptanoyl]oxymethyl]-3-[4-(2-pyrrolidin-1-ylethylcarbamoyloxy)decanoyloxy]propyl]O7-(1-methylnonyl)heptanedioate] | 10.9 p/s (×10^6) | 6.0 p/s (×10^6) | 5.1 p/s (×10^6) | 3230 p/s (×10^6) | 27.7 p/s (×10^6) | 34.4 p/s (×10^6) | 4.6 p/s (×10^6) | 6.4 p/s (×10^6) |

same assay, conditions: Mouse 11, dose 0.5 mg/kg, luciferase mRNA

| SMILES | Organ Mean Total Flux Femur | Organ Mean Total Flux Heart | Organ Mean Total Flux Kidney | Organ Mean Total Flux Liver | Organ Mean Total Flux Lung | Organ Mean Total Flux Muscle | Organ Mean Total Flux Pancreas | Organ Mean Total Flux Spleen |
| --- | --- | --- | --- | --- | --- | --- | --- | --- |
| CCCCCCCC(C)OC(=O)CCCCCCC(=O)OCC(COC(=O)CCCCCCC(=O)OC(C)CCCCCCC)(COC(=O)CCCCCCC(=O)OC(C)CCCCCCC)COC(=O)CCC(CCCCCC)OC(=O)NCCN1CCCC1 (stereo not drawn) [Compound 37, O1-[2,2-bis[[8-(1-methyloctoxy)-8-oxo-octanoyl]oxymethyl]-3-[4-(2-pyrrolidin-1-ylethylcarbamoyloxy)decanoyloxy]propyl]O8-(1-methyloctyl) octanedioate] | 2.2 p/s (×10^6) | 1.9 p/s (×10^6) | 0.8 p/s (×10^6) | 1737 p/s (×10^6) | 10.5 p/s (×10^6) | 5.2 p/s (×10^6) | 0.6 p/s (×10^6) | 2.5 p/s (×10^6) |
| CCCCCCCCC(C)OC(=O)CCCCCCC(=O)OCC(COC(=O)CCCCCCC(=O)OC(C)CCCCCCCC)(COC(=O)CCCCCCC(=O)OC(C)CCCCCCCC)COC(=O)CCC(CCCCCC)OC(=O)NCCN1CCCC1 (stereo not drawn) [Compound 39, O1-[2,2-bis[[8-(1-methylnonoxy)-8-oxo-octanoyl]oxymethyl]-3-[4-(2-pyrrolidin-1-ylethylcarbamoyloxy)decanoyloxy]propyl]O8-(1-methylnonyl) octanedioate] | 2.6 p/s (×10^6) | 6.5 p/s (×10^6) | 2.3 p/s (×10^6) | 3390 p/s (×10^6) | 19.6 p/s (×10^6) | 11.0 p/s (×10^6) | 1.1 p/s (×10^6) | 2.9 p/s (×10^6) |
